Laboratory results reported in patent US20240150293A1, “SPIROCYCLOHEXANE DERIVATIVES, PHARMACEUTICAL COMPOSITIONS CONTAINING THEM AND THEIR USES AS ANTI-APOPTOTIC INHIBITORS” (LES LABORATOIRES SERVIER, priority 2021, published 2024).

What was measured:
[1] = test system: H929 multiple myeloma tumor line; test: In vitro cytotoxicity, MTT assay (Example B, Method A); format: cell-based; settings: Homo sapiens, NCI-H929, 48 h, H929 cells, 48 hours exposure, read-out: C50
Description: The cytotoxicity studies were carried out on the H929 multiple myeloma tumor line.
The cells are distributed onto microplates and exposed to the test compounds for 48 hours. The cell viability is then quantified by a colorimetric assay, the Microculture Tetrazolium Assay (Carmichael et al, Cancer Res. 1987, 47, 939-942).
The results are expressed in C50 which means concentration corresponding to […] of effect/inhibition.

[2] = target: Mcl-1 protein (UniProtKB Q07820) (Homo sapiens (Human), UniProt Q07820); test: Inhibition of Mcl-1 by the fluorescence polarisation assay (Example A, Method A); format: binding; settings: fluorescence polarization assay
Outline: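 Protein (5 nM) and fluorescein-tagged peptide tracer (1 nM) incubated with 11-point compound series for 2 h at room temperature in HEPES/NaCl/Tween 20 buffer, pH 7.4, 5% DMSO. Displacement read as decrease in polarisation; IC50 fitted by 4-parameter logistic, converted to Ki (cKi or eKi).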

Chain of Mcl-1 protein (Q07820 whole entry): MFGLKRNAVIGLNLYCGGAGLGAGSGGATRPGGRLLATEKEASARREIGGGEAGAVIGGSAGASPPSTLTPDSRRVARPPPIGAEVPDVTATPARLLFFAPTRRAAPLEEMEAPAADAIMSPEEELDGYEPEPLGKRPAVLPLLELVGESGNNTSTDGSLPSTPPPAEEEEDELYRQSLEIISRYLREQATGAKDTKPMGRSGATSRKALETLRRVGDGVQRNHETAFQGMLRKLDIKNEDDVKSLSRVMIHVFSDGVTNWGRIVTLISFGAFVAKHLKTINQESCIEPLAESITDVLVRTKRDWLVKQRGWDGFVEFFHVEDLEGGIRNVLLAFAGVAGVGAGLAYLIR

Row | Ki [2] [µM] | SMILES | IC50 [1] [µM]
1 | 0.607 | O=C(O)[C@]1(Nc2cccc(Cl)c2)CC[C@@]2(CC1)c1ccccc1C[C@@H]2C[C@H](COc1cccnc1)c1ccccc1 [Example 551, (1r,2′S,4S)-4-(3-chloroanilino)-2′-{(2S)-2-phenyl-3-[(pyridin-3-yl)oxy]propyl}-2′,3′-dihydrospiro[cyclohexane-1,1′-indene]-4-carboxylic acid] | 15.9
2 | 0.11 | O=C(O)[C@]1(Nc2cccc(Cl)c2)CC[C@@]2(CC1)c1ccccc1C[C@@H]2C[C@@H](COc1ccncc1)c1ccccc1 [Example 552, (1r,2′S,4S)-4-(3-chloroanilino)-2′-{(2R)-2-phenyl-3-[(pyridin-4-yl)oxy]propyl}-2′,3′-dihydrospiro[cyclohexane-1,1′-indene]-4-carboxylic acid] | 3.38
3 | 5.64 | O=C(O)[C@]1(Nc2cccc(Cl)c2)CC[C@@]2(CC1)c1ccccc1C[C@H]2C[C@@H](COc1ccncc1)c1ccccc1 [Example 553, (1r,2′R,4R)-4-(3-chloroanilino)-2′-{(2R)-2-phenyl-3-[(pyridin-4-yl)oxy]propyl}-2′,3′-dihydrospiro[cyclohexane-1,1′-indene]-4-carboxylic acid] | 17.5
4 | 0.323 | O=C(O)[C@]1(Nc2cccc(Cl)c2)CC[C@@]2(CC1)c1ccccc1C[C@H]2C[C@H](COc1ccncc1)c1ccccc1 [Example 554, (1r,2′R,4R)-4-(3-chloroanilino)-2′-{(2S)-2-phenyl-3-[(pyridin-4-yl)oxy]propyl}-2′,3′-dihydrospiro[cyclohexane-1,1′-indene]-4-carboxylic acid] | 30
5 | 7.19 | O=C(O)[C@]1(Nc2cccc(Cl)c2)CC[C@@]2(CC1)c1ccccc1C[C@@H]2C[C@@H](COc1ccccc1)c1ccccc1 [Example 556, (1r,2′S,4S)-4-(3-chloroanilino)-2′-[(2R)-3-phenoxy-2-phenylpropyl]-2′,3′-dihydrospiro[cyclohexane-1,1′-indene]-4-carboxylic acid] | 19.3
6 | 1.27 | O=C(O)[C@]1(Nc2cccc(Cl)c2)CC[C@@]2(CC1)c1ccccc1C[C@H]2C[C@H](COc1ccccc1)c1ccccc1 [Example 557, (1r,2′R,4R)-4-(3-chloroanilino)-2′-[(2S)-3-phenoxy-2-phenylpropyl]-2′,3′-dihydrospiro[cyclohexane-1,1′-indene]-4-carboxylic acid] | 20.1
7 | 0.438 | C[C@@H](COc1cccnc1)C[C@H]1Cc2ccccc2[C@]12CC[C@@](Nc1cccc(Cl)c1)(C(=O)O)CC2 [Example 568, (1r,2′S,4S)-4-(3-chloroanilino)-2′-{(2R)-2-methyl-3-[(pyridin-3-yl)oxy]propyl}-2′,3′-dihydrospiro[cyclohexane-1,1′-indene]-4-carboxylic acid] | 18.3
8 | 0.0743 | CNc1cccc(OC[C@H](C)C[C@H]2Cc3ccccc3[C@]23CC[C@@](Nc2cccc(Cl)c2)(C(=O)O)CC3)c1 [Example 569, (1r,2′S,4S)-4-(3-chloroanilino)-2′-{(2R)-2-methyl-3-[3-(methylamino)phenoxy]propyl}-2′,3′-dihydrospiro[cyclohexane-1,1′-indene]-4-carboxylic acid] | 1.72
9 | 0.0927 | C[C@@H](COc1ccncc1C1CC1(C)C)C[C@H]1Cc2ccccc2[C@]12CC[C@@](Nc1cccc(Cl)c1)(C(=O)O)CC2 (stereo partly drawn) [Example 580, (1r,2′S,4S)-4-(3-chloroanilino)-2′-[(2R)-3-{[3-(2,2-dimethylcyclopropyl)pyridin-4-yl]oxy}-2-methylpropyl]-2′,3′-dihydrospiro[cyclohexane-1,1′-indene]-4-carboxylic acid] | 5.12
10 | 0.0519 | C[C@@H](COc1ccncc1)C[C@H]1Cc2ccccc2[C@]12CC[C@@](Nc1cccc(Cl)c1)(C(=O)O)CC2 [Example 582, (1r,2′S,4S)-4-(3-chloroanilino)-2′-{(2R)-2-methyl-3-[(pyridin-4-yl)oxy]propyl}-2′,3′-dihydrospiro[cyclohexane-1,1′-indene]-4-carboxylic acid] | 2.55
11 | 0.036 | CNc1cc(OC[C@H](C)C[C@H]2Cc3ccccc3[C@]23CC[C@@](Nc2cccc(Cl)c2)(C(=O)O)CC3)ccn1 [Example 585, (1r,2′S,4S)-4-(3-chloroanilino)-2′-[(2R)-2-methyl-3-{[2-(methylamino)pyridin-4-yl]oxy}propyl]-2′,3′-dihydrospiro[cyclohexane-1,1′-indene]-4-carboxylic acid] | 2.61
12 | 0.0192 | C[C@@H](COc1ccnc2ccsc12)C[C@@H]1Cc2ccccc2[C@]12CC[C@@](Nc1cccc(Cl)c1)(C(=O)O)CC2 [Example 590, (1r,2′R,4R)-4-(3-chloroanilino)-2′-{(2R)-2-methyl-3-[(thieno[3,2-b]pyridin-7-yl)oxy]propyl}-2′,3′-dihydrospiro[cyclohexane-1,1′-indene]-4-carboxylic acid] | 1.17
13 | 0.0145 | C[C@@H](COc1ncnc2c1CCC2)CC1Cc2ccccc2[C@]12CC[C@@](Nc1cccc(Cl)c1)(C(=O)O)CC2 (stereo partly drawn) [Example 593, (1r,4R)-4-(3-chloroanilino)-2′-{(2R)-3-[(6,7-dihydro-5H-cyclopenta[d]pyrimidin-4-yl)oxy]-2-methylpropyl}-2′,3′-dihydrospiro[cyclohexane-1,1′-indene]-4-carboxylic acid] | 2.01
14 | 0.0299 | C[C@@H](COc1ncnc2c1C(C)(C)CC2)CC1Cc2ccccc2[C@]12CC[C@@](Nc1cccc(Cl)c1)(C(=O)O)CC2 (stereo partly drawn) [Example 595, (1r,4R)-4-(3-chloroanilino)-2′-{(2R)-3-[(5,5-dimethyl-6,7-dihydro-5H-cyclopenta[d]pyrimidin-4-yl)oxy]-2-methylpropyl}-2′,3′-dihydrospiro[cyclohexane-1,1′-indene]-4-carboxylic acid] | 1.51
15 | 0.0312 | C[C@@H](COc1ccnc2c1CCC2)CC1Cc2ccccc2[C@]12CC[C@@](Nc1ccccc1)(C(=O)O)CC2 (stereo partly drawn) [Example 596, (1r,4R)-4-anilino-2′-{(2R)-3-[(6,7-dihydro-5H-cyclopenta[b]pyridin-4-yl)oxy]-2-methylpropyl}-2′,3′-dihydrospiro[cyclohexane-1,1′-indene]-4-carboxylic acid] | 1.82
16 | 0.03 | C[C@@H](COc1ccnc2sccc12)C[C@H]1Cc2ccccc2[C@]12CC[C@@](Nc1cccc(Cl)c1)(C(=O)O)CC2 [Example 604, (1r,2′S,4S)-4-(3-chloroanilino)-2′-{(2R)-2-methyl-3-[(thieno[2,3-b]pyridin-4-yl)oxy]propyl}-2′,3′-dihydrospiro[cyclohexane-1,1′-indene]-4-carboxylic acid] | 0.694
17 | 0.0242 | Cc1csc2nccc(OC[C@H](C)C[C@H]3Cc4ccccc4[C@]34CC[C@@](Nc3cccc(Cl)c3)(C(=O)O)CC4)c12 [Example 605, (1r,2′S,4S)-4-(3-chloroanilino)-2′-{(2R)-2-methyl-3-[(3-methylthieno[2,3-b]pyridin-4-yl)oxy]propyl}-2′,3′-dihydrospiro[cyclohexane-1,1′-indene]-4-carboxylic acid] | 0.906
